According to patent publication US20240148821A1, “PHARMACEUTICAL USE OF CYCLIC PEPTIDE COMPOUND” (CHUGAI SEIYAKU KABUSHIKI KAISHA, priority 2021, published 2024):
Numbered stars: 1 amine (or outer) side, 2 acyl side, 3 side chain; on linkers, the order of the positions; unused ones are H or OH. Bridge positions count the residues as written; N and C are the ends. Square brackets hold non-standard residues; d marks the D form. Peptide text beside a SMILES is read from it. * marks the point of attachment. hPhe(3,5-F2-4-CF3) = N[C@@H](CCc1cc(F)c(C(F)(F)F)c(F)c1)C(=O)O; NMeAbu(3,3-F2-piperidino) = CN[C@@H](CCN1CCCC(F)(F)C1)C(=O)O; hPhe(3-Cl-4-CF3) = N[C@@H](CCc1ccc(C(F)(F)F)c(Cl)c1)C(=O)O; hPhe(3-F,4-CF3) = N[C@@H](CCc1ccc(C(F)(F)F)c(F)c1)C(=O)O; NMePhe(4-Cl) = CN[C@@H](Cc1ccc(Cl)cc1)C(=O)O; NMePhe(4-Me) = CN[C@@H](Cc1ccc(C)cc1)C(=O)O; X40 = O=C([C@H](Cc1cc(I)ccc1F)N[*:1])[*:2]; NMeAla(cPent) = CN[C@@H](CC1CCCC1)C(=O)O; NMeGly(cPent) = CN[C@H](C(=O)O)C1CCCC1; Phe(3-I) = N[C@@H](Cc1cccc(I)c1)C(=O)O; Pro(4,4-F2) = O=C(O)[C@@H]1CC(F)(F)CN1; NMe4Pal = CN[C@@H](Cc1ccncc1)C(=O)O; NMeGly(cBu) = CN[C@H](C(=O)O)C1CCC1; NMeCha = CN[C@@H](CC1CCCCC1)C(=O)O; NMeChg = CN[C@H](C(=O)O)C1CCCCC1; NMeD = CN[C@@H](CC(=O)O)C(=O)O; NMeL = CN[C@@H](CC(C)C)C(=O)O; NMeV = CN[C@H](C(=O)O)C(C)C; d(β3hA) = C[C@@H](N)CC(=O)O; Morpholide = C1CN(*)CCO1; NMeA = CN[C@@H](C)C(=O)O; NMeAib = CNC(C)(C)C(=O)O; Nle = CCCC[C@H](N)C(=O)O; Piperidide = C1CCN(*)CC1; Pra = C#CC[C@H](N)C(=O)O; Pyrrolidide = C1CCN(*)C1; Ac5c = NC1(C(=O)O)CCCC1; Aze = O=C(O)[C@@H]1CCN1; Sar = CNCC(=O)O

test system: Human pancreatic cancer cell line AsPC-1 (G12D mutation Kras); assay: AsPC-1 cell growth inhibition (AsPC-1 CGI); format: cell-based; conditions: read-out: AsPC-1 cell growth inhibition, 50% growth inhibitory concentration (IC50 value); 96 hours, CellTiter-Glo, values classified in ranges
Protocol: Test compounds were serially dilated with dimethyl sulfoxide, and 200 nL was then dispensed to a U-bottom 96-well plate using Labcyte Echo. […] The cell suspension was dispensed to a. plate containing a test compound at 100 μL per well and incubated at 37° C. in a 5% carbon dioxide gas incubator. 96 hours later, 80 μL of CellTiter-Glo (Promega) was added to each well and fluorescence was measured.

Q: With `CC[C@H](C)[C@@H]1NC(=O)[C@H](CC(C)C)N(C)C(=O)C[C@@H](C(=O)N2CCOCC2)N(C)C(=O)[C@H](C(C)C)N(C)C(=O)C2(CCCC2)NC(=O)[C@@H]2CCCN2C(=O)[C@H](CCc2ccc(C(F)(F)F)c(Cl)c2)NC(=O)CN(C)C(=O)[C@H](CC2CCCC2)N(C)C(=O)CN(C)C(=O)CN(C)C1=O` [Compound 1848] ([NMeL]I[Sar][Sar][NMeAla(cPent)][Sar][hPhe(3-Cl-4-CF3)]P[Ac5c][NMeV][NMeD]-Morpholide; lactam N-11) as the molecule, how does the IC50 read?
A: > 500 nM

Q: For `CC[C@H](C)[C@@H]1NC(=O)[C@H](CC(C)C)N(C)C(=O)C[C@@H](C(=O)N2CCCC2)N(C)C(=O)[C@H](C2CCCC2)N(C)C(=O)C2(CCCC2)NC(=O)[C@@H]2CC(F)(F)CN2C(=O)[C@H](CCc2cc(F)c(C(F)(F)F)c(F)c2)NC(=O)CN(C)C(=O)[C@H](CC2CCCCC2)N(C)C(=O)CN(C)C(=O)CN(C)C1=O` [Compound 1166] ([NMeL]I[Sar][Sar][NMeCha][Sar][hPhe(3,5-F2-4-CF3)][Pro(4,4-F2)][Ac5c][NMeGly(cPent)][NMeD]-Pyrrolidide; lactam N-11), which IC50 is on record?
A: ≤ 20 nM

Q: For `CC[C@H](C)[C@@H]1NC(=O)[C@H](CC(C)C)N(C)C(=O)C[C@@H](C)NC(=O)[C@H](C(C)C)N(C)C(=O)C2(CCCC2)NC(=O)[C@@H]2CCCN2C(=O)[C@H](CCc2ccc(C(F)(F)F)c(F)c2)NC(=O)CN(C)C(=O)[C@H](CC2CCCCC2)N(C)C(=O)CN(C)C(=O)CN(C)C1=O` [Compound 1534] (cyclo([Ac5c][NMeV][d(β3hA)][NMeL]I[Sar][Sar][NMeCha][Sar][hPhe(3-F,4-CF3)]P)), which IC50 is on record?
A: > 500 nM

Q: How did the IC50 turn out when `C#CC[C@@H]1NC(=O)[C@H](Cc2cccc(I)c2)NC(=O)CN(C)C(=O)[C@H](Cc2ccc(Cl)cc2)N(C)C(=O)CN(C)C(=O)CN(C)C(=O)[C@H]([C@@H](C)CC)NC(=O)[C@H](CC(C)C)N(C)C(=O)C[C@@H](C(=O)N2CCCCC2)N(C)C(=O)[C@H](CC(C)C)NC(=O)C(C)(C)N(C)C1=O` [Compound 1426] ([NMeL]I[Sar][Sar][NMePhe(4-Cl)][Sar][Phe(3-I)][Pra][NMeAib]L[NMeD]-Piperidide; lactam N-11) was run?
A: > 500 nM

Q: With `CC[C@H](C)[C@@H]1NC(=O)[C@H](CC(C)C)N(C)C(=O)C[C@@H](C(=O)N(C)C)N(C)C(=O)[C@H](C2CCCC2)N(C)C(=O)[C@H](C)NC(=O)[C@H](CCN2CCCC(F)(F)C2)N(C)C(=O)[C@H](CCc2ccc(C(F)(F)F)c(Cl)c2)NC(=O)CN(C)C(=O)[C@H](CC2CCCCC2)N(C)C(=O)[C@@H]2CCN2C(=O)[C@H](C)N(C)C1=O` [Compound 1081] ([NMeL]I[NMeA][Aze][NMeCha][Sar][hPhe(3-Cl-4-CF3)][NMeAbu(3,3-F2-piperidino)]A[NMeGly(cPent)][NMeD]-NMe2; lactam N-11) as the molecule, how does the IC50 read?
A: > 500 nM

Q: How did the IC50 turn out when `CC[C@H](C)[C@@H]1NC(=O)[C@H](CC(C)C)N(C)C(=O)C[C@@H](C)NC(=O)[C@H](C2CCCC2)N(C)C(=O)C2(CCCC2)NC(=O)[C@H](C)NC(=O)[C@H](CCc2ccc(C(F)(F)F)c(Cl)c2)NC(=O)CN(C)C(=O)[C@H](Cc2ccc(C)cc2)N(C)C(=O)[C@@H]2CCN2C(=O)[C@H](C)N(C)C1=O` [Compound 1307] (cyclo(A[Ac5c][NMeGly(cPent)][d(β3hA)][NMeL]I[NMeA][Aze][NMePhe(4-Me)][Sar][hPhe(3-Cl-4-CF3)])) was run?
A: > 500 nM

Q: With `CC[C@H](C)[C@@H]1NC(=O)[C@H](C2CCC2)N(C)C(=O)C[C@@H](C(=O)N2CCCC2)N(C)C(=O)[C@H](C2CCCCC2)N(C)C(=O)C2(CCCC2)NC(=O)[C@@H]2CC(F)(F)CN2C(=O)[C@H](CCc2cc(F)c(C(F)(F)F)c(F)c2)NC(=O)CN(C)C(=O)[C@H](CC2CCCCC2)N(C)C(=O)CN(C)C(=O)CN(C)C1=O` [Compound 1295] ([NMeGly(cBu)]I[Sar][Sar][NMeCha][Sar][hPhe(3,5-F2-4-CF3)][Pro(4,4-F2)][Ac5c][NMeChg][NMeD]-Pyrrolidide; lactam N-11) as the molecule, how does the IC50 read?
A: ≤ 20 nM

Q: For `CC[C@H](C)[C@@H]1NC(=O)[C@H](CC(C)C)N(C)C(=O)C[C@@H](C(=O)N(C)C)N(C)C(=O)[C@H](C2CCCC2)N(C)C(=O)[C@H](C(C)C)NC(=O)[C@H](Cc2ccncc2)N(C)C(=O)[C@H](CCc2ccc(C(F)(F)F)c(Cl)c2)NC(=O)CN(C)C(=O)[C@H](CC2CCCCC2)N(C)C(=O)[C@@H]2CCN2C(=O)[C@H](C)N(C)C1=O` [Compound 1982] ([NMeL]I[NMeA][Aze][NMeCha][Sar][hPhe(3-Cl-4-CF3)][NMe4Pal]V[NMeGly(cPent)][NMeD]-NMe2; lactam N-11), which IC50 is on record?
A: > 500 nM

Q: With `CCCC[C@@H]1NC(=O)[C@H](Cc2cc(I)ccc2F)NC(=O)CN(C)C(=O)[C@H](Cc2ccc(Cl)cc2)N(C)C(=O)CN(C)C(=O)CN(C)C(=O)[C@H]([C@@H](C)CC)NC(=O)[C@H](CC(C)C)N(C)C(=O)C[C@@H](C(=O)N2CCCCC2)N(C)C(=O)[C@H](CC(C)C)NC(=O)C(C)(C)N(C)C1=O` [Compound 1286] ([NMeL]I[Sar][Sar][NMePhe(4-Cl)][Sar][X40][Nle][NMeAib]L[NMeD]-Piperidide; lactam N-11) as the molecule, how does the IC50 read?
A: > 500 nM
